Measurements from patent US9084812B2, “Composition useful for the prevention or reduction of the progression of prostate cancer” (SIGMA-TAU INDUSTRIE FARMACEUTICHE RIUNITE S.P.A., priority 2008, dated 2015).
“And” between values parts separate entries of the source, which are not always exact repeats. Equal values may be shown once.

Experiments:
LNCaP cells = assay: MTT colorimetric cell proliferation assay, LNCaP; assay type: cell-based, human; design: Absorbance 540 nm, single wells (N° 1-10) / Absorbance 540 nm, Mean / LNCaP cell proliferation, Mean: unit not given here; conditions: for % inhib: vs control
Experimental: (§1) For the experiments reported in the following established human prostate carcinoma cell lines LNCaP and PC3 (obtained from the American Type Culture Collection Rockville, Md.) were used. The LNCaP cells were cultured in RPMI 1640 medium (Life Technologies, Rockville, Md.), supplemented with 10% Fetal Bovine Serum (FBS) and 1% Penicillin and Streptomycin. The cells were incubated at 37 degree C. in a humidified atmosphere of 5% CO2 in air. Both sets of cell cultures were grown to 80% confluence in 10 cm tissue culture flasks and split 1:8. The cells were plated in 96 cell plates and allowed to attach and reach 60-70% confluence before being used for experimentation. […] Cells that were used as control were incubated with same amount of PBS in complete cell medium. The effects of lycopene (5 mmol/L], selenium (30 ng/ml), zinc (10 μg/ml), serenoa (10 μg/ml), and soya isoflavon (10 μg/ml) were also tested by adding them to the cell culture alone or in combination with the green tea extract and pomegranate extract. The cellular proliferation of the cells was determined using the 3-(4,5-dimethylthiazol-2-yl)-2,5-diphenyltetrazolium (MIT) colorimetric assay following 24 hours of incubation at 37° C. with or without the test agents. The MTT ([…]) was added to all the wells and incubated for a further 2 hr. The plate was than centrifuged at 500×g for 5 min at 4 degree C. The MIT solution was removed from the wells by careful aspiration and buffered DMSO (0.1 ml) was added to each of the wells and plates shaken for 15 mins. The absorbance was measured on a microplate reader at the wavelength of 540 nm. The effect of each compound alone and in combination on cell growth was assessed as the percentage of cell viability in which the untreated control cells were taken as those being completely viable and allowed to grow freely.

PC3 cells = assay: MTT colorimetric cell proliferation assay, PC3; assay type: cell-based, human; design: Absorbance 540 nm, single wells (N° 1-8) / Absorbance 540 nm, Mean / PC3 cell proliferation, single wells (N° 1-8) / PC3 cell proliferation, Mean: unit not given here; conditions: for Absorbance 540 nm, single wells (N° 1-8): lycopene 5 mmol/L, selenium 30 ng/ml, zinc 10 μg/ml; for % inhib: vs control
Experimental: as §1

[1] = Table 1, 24 hours incubation, mean of 10 wells
[2] = Table 2, 24 hours incubation, green tea 40 μg/ml, pomegranate 40 μg/ml
[3] = Table 2, 24 hours incubation, mean of 8 wells

SMILES | Absorbance 540 nm, single wells (N° 1-10) (LNCaP cells; Table 1, 24 hours incubation, green tea 40 μg/ml, pomegranate 40 μg/ml, lycopene 5 mmol/L, selenium 30 ng/ml, zinc 10 μg/ml) | Absorbance 540 nm, Mean (LNCaP cells; [1]) | % inhib (LNCaP cells; Table 1, 24 hours incubation) [%] | Absorbance 540 nm, single wells (N° 1-8) (PC3 cells; [2]) | Absorbance 540 nm, Mean (PC3 cells; [3]) | % inhib (PC3 cells; Table 2, 24 hours incubation) [%] | LNCaP cell proliferation, Mean (LNCaP cells; Table 3, 24 hours incubation, mean of 10 wells) | % inhib (LNCaP cells; Table 3, 24 hours incubation) [%] | PC3 cell proliferation, single wells (N° 1-8) (PC3 cells; Table 4, 24 hours incubation, green tea 40 μg/ml, pomegranate 40 μg/ml, serenoa 10 μg/ml, soya isoflavon 10 μg/ml, L-carnitine) | PC3 cell proliferation, Mean (PC3 cells; Table 4, 24 hours incubation, mean of 8 wells) | % inhib (PC3 cells; Table 4, 24 hours incubation) [%]
CC(C)=CCC/C(C)=C/C=C/C(C)=C/C=C/C(C)=C/C=C/C=C(C)/C=C/C=C(C)/C=C/C=C(\C)CCC=C(C)C [C, lycopene] | 312 and 317 and 301 and 329 and 315 and 327 and 353 and 341 | 324 | 6.4 | 377 and 314 and 322 and 309 and 299 and 316 and 382 and 308 | 328 | 11.4 | – | – | – | – | –
[Se] [D, selenium] | – | 311 | 9.8 | 309 and 341 and 345 and 286 and 292 and 313 and 321 and 374 | 323 | 12.7 | – | – | – | – | –
[Zn] [E, zinc] | – | 325 | 5.7 | 355 and 322 and 395 and 344 and 312 and 321 and 339 | 342 | 7.8 | – | – | – | – | –
C[N+](C)(C)C[C@H](O)CC(=O)[O-] [H, L-carnitine] | – | – | – | – | – | – | 347 | 3.3 | 366 and 341 and 387 and 320 and 378 and 392 and 385 | 369 | 2.6
